Measured values: publication PMC7316895, “Identification of a Compound That Inhibits the Growth of Gram-Negative Bacteria by Blocking BamA–BamD Interaction” (Frontiers in Microbiology, 2020)

Biological target: T1, BamA (Escherichia coli, UniProt P0A940)
T1 construct: biotinylated for BLI
Experiment: biolayer interferometry ([…] global fit); supported by GST pull-down showing dose-dependent loss of BamA–BamD interaction
Assay type: binding

With COC(=O)c1c(NC(=O)c2ccc([N+](=O)[O-])o2)sc2c1CCN(C(C)C)C2 [IMB-H4] as the molecule, how does the Kd read?
The Kd was 3.90E^–6.
